Source: ChEMBL document CHEMBL1201862, “PubChem BioAssay data set” (2004)
Active and inactive are the calls of the source.

How the values were obtained:
[1] = HepG2 cell cytotoxicity, dose response, cytotoxicity control for Shn3 inhibitor project, CellTiter-Glo, cherry-picked (AID 624134); assay type: functional, cell-based
[2] = reduction of Shn3 3'UTR firefly luciferase signal, dose response, Schnurri-3 inhibitor project, cell-based, Clone20 osteoblasts, cherry-pick, set 2 (AID 720490); assay type: functional;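 also: actives lower the luminescence signal as inhibitors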
INS1 = test: beta cell apoptosis inhibitors, cytokine rescue, dose response, luminescence, retest (AID 449756); assay type: functional, cell-based; conditions: Rattus norvegicus;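 also: cell death triggered by IL-1 beta plus TNF-alpha plus IFN-gamma mixture; protective hits raise ATP signal compared with cytokine alone wells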
[3] = control 3'UTR Renilla luciferase suppression, dose response, counter-screen for Shn3 inhibitor project, cell-based, Clone20-Shn3RL, cherry-picked (AID 624133); assay type: functional
Cytochrome P450 2C9 = Cytochrome P450 2C9 (Homo sapiens, UniProt P11712)
[4] = Shn3 3'UTR reporter inhibitors, dose response, cell-based, Clone20 osteoblasts, firefly luciferase, cherry-picked (AID 624132); assay type: functional;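 also: firefly luciferase luminescence from reporter carrying the Shn3 3'UTR in osteoblasts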
Cytochrome P450 2D6 = Cytochrome P450 2D6 (Homo sapiens, UniProt P10635);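 also: CYP2D6 member of a cytochrome P450 panel assay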
[5] = NIH-3T3 fibroblast cytotoxicity, dose response, cytotoxicity control, cell-based, fluorescence, Alamar Blue, secondary assay (AID 2327); assay type: functional;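 also: NIH-3T3 mouse fibroblasts cultured with fluconazole at 8 µg/mL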
[6] = C. albicans growth with fluconazole, confirmation, fluorescence, retest (AID 2467); assay type: functional, cell-based
cells [7] = conditions: HEK293
cells [8] = conditions: A549
[9] = HepG2 cell cytotoxicity, dose response, cytotoxicity control, ATP luminescence, cherry-pick, set 6 (AID 1053125); assay type: functional, cell-based
[10] = target: T1, Heat shock factor protein 1 (Mus musculus, UniProt P38532); test: HSF1 potentiators in luciferase reporter cells, confirmation, cell-based, NIH3T3, luminescence, dose retest (AID 435004); assay type: functional;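 also: stress induced by proteasome inhibitor MG132 added 30 min after compound; luciferase reporter driven by HSF1 response element in NIH3T3 cells; actives raise luminescence as potentiators of the MG132 stress response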
T1 sequence (P38532 whole entry): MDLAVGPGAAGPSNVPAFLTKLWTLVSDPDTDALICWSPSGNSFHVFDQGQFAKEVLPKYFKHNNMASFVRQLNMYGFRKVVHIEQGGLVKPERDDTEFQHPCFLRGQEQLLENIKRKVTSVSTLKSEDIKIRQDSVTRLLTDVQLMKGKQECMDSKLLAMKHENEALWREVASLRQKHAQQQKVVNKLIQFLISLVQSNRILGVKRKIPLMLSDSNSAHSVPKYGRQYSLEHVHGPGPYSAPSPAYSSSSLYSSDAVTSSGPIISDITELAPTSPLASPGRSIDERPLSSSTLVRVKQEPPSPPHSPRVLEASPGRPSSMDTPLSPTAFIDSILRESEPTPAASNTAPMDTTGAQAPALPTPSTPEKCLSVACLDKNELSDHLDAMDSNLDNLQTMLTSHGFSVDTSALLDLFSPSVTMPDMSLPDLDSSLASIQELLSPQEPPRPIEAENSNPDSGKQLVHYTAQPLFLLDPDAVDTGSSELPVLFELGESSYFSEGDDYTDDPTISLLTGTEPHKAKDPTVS

[11] = HEp-2 cell cytotoxicity, dose response, cytotoxicity control for RSV inhibitor project, HTS (AID 2410); assay type: functional; conditions: human respiratory syncytial virus
Albumin = Albumin (Bos taurus, UniProt P02769); test: Counterscreen for inhibitors of T-cell receptor (TCR)-CD3 interaction: Fluorescence-based biochemical high throughput dose response assay to identify inhibitors of T-cell receptor (TCR)-CD3 interaction using a TAMRA-labeled BSA probe.; assay type: functional
[12] = Luminescence Cell-Based Dose Retest to Confirm Inhibitors of Cancer Stem Cells. [Related pubchem assays (depositor defined):AID2717, AID2721]; assay type: functional; conditions: Homo sapiens
HEK293 [13] = test: NOD1 signaling inhibitors, primary screen, cell-based, luminescence, uHTS (AID 1578); assay type: functional; conditions: Homo sapiens
HEK293 [14] = test: cells; assay type: functional, cell-based; conditions: Homo sapiens
[15] = target: COUP transcription factor 2 (Homo sapiens, UniProt P24468); test: Luminescence-based cell-based high throughput dose response assay to identify inhibitors of COUP-TFII (NR2F2).; assay type: functional;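 also: HEK293 cells transiently cotransfected with COUP-TFII expression vector and reporter; luciferase reporter luminescence driven by COUP-TFII from the pX2-168 reporter plasmid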
HEK293 [16] = test: cells; assay type: functional, cell-based; conditions: Homo sapiens; remark: listed apart in the source
HEK293 [17] = test: NOD2 signaling inhibitors in MDP-stimulated cells, cell-based, uHTS, luminescence (AID 2001); assay type: functional; conditions: Homo sapiens
[18] = THP-1 cell cytotoxicity, dose response, cytotoxicity control for Vif-APOBEC3G degradation inhibitor project, THP-1 cells (AID 1117359); assay type: functional; conditions: Human immunodeficiency virus 1, THP-1
Caspase-6 = target: T2, Caspase-6 (Homo sapiens, UniProt P55212); test: human caspase-6 inhibitors, dose response, biochemical, VEID-R110 fluorescence, cherry-pick (AID 720632)
T2 sequence (P55212 whole entry): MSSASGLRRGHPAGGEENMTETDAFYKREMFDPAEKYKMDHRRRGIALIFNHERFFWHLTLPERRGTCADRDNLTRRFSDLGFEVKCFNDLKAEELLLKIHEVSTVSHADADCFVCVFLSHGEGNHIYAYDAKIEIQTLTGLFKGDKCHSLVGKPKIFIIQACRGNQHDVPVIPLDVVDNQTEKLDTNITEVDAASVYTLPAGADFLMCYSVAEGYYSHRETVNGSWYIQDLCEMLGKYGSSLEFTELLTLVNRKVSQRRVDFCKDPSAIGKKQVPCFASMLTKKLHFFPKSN

H9c2 = test: cells; assay type: functional, cell-based; conditions: Rattus norvegicus, H9c2, Myocardium;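 also: confirmatory concentration-response retest of ultra-high-throughput screening hits for modulation of myocardial damage; cell death induced by hydrogen peroxide oxidative stress; compound pretreatment for 60 min then peroxide exposure for 2 h; potency is for protecting the cells against peroxide damage rather than for killing them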
[19] = target: Histone-lysine N-methyltransferase NSD2 (Homo sapiens, UniProt O96028); assay type: biochemical
[20] = target: DNA (cytosine-5)-methyltransferase 1 (Homo sapiens, UniProt P26358); test: DNMT1 methyltransferase inhibitors, confirmation, biochemical, fluorescent molecular beacon (AID 602386); assay type: functional
[21] = target: Glucose-6-phosphate 1-dehydrogenase (Homo sapiens, UniProt P11413); test: human G6PD enzyme inhibitors, dose response, selectivity assay for P. falciparum G6PD inhibitor project, biochemical, fluorescence (AID 504792); assay type: functional
cells [22] = test: cells
Major prion protein = Major prion protein (Homo sapiens, UniProt P04156); assay type: functional, cell-based

Structure (SMILES): Cc1ccc2c(c1)nnn2C1CCN(S(=O)(=O)c2ccc(C(=O)N3C(C)CCCC3C)cc2)CC1 (stereo not given)
- AC50 [1]: 60.8 µM (active)
- AC50 [2]: 1.29 µM (active)
- AC50 (INS1): 4.53 µM (active)
- AC50 [3]: 11.4 µM (active)
- AC50 (Cytochrome P450 2C9): 15.8 µM (inconclusive)
- AC50 [4]: 0.695 µM (active)
- AC50 (Cytochrome P450 2D6): 0.158 µM (inconclusive)

Structure (SMILES): N#CC(C#N)=C1C=CC=CN1/C(=C\c1ccccc1)C(=O)c1cccs1
- EC50 [5]: 14.3 µM (active)
- EC50 [6]: > 38 µM (not active)
- AC50 (cells [7]): 22.1 µM (active)
- AC50 (cells [8]): > 52 µM (inactive)
- AC50 [9]: 49.7 µM (active)
- EC50 [10]: 4.04 µM (active)
- CC50 [11]: 21.6 µM (active)

Structure (SMILES): CNC(=S)NNC(=O)c1cccn(Cc2ccc(Cl)cc2Cl)c1=O
- IC50 (Albumin): > 94.1 µM (inactive)

Structure (SMILES): Fc1ccc2[nH]c3c(N4CCc5ccccc5C4)ncnc3c2c1
- AC50 [12]: 13.8 µM (active)
- EC50 (HEK293 [13]): 3.14 µM (active)
- AC50 [1]: 3.91 µM (active)
- AC50 [3]: 24.1 µM (active)
- IC50 (HEK293 [14]): 1.51 µM (active)
- IC50 [15]: 5.24 µM (active)
- AC50 [4]: 0.466 µM (active)
- IC50 (HEK293 [16]): 12.4 µM (active)
- IC50 (HEK293 [17]): 1.27 µM (active)
- CC50 [18]: > 40 µM (active)

Structure (SMILES): CCC(CO)NC(=O)C1C=C2c3cccc4[nH]cc(c34)CC2N(C)C1 (stereo not given)
- AC50 (Caspase-6): 27.3 µM (active)

Structure (SMILES): Nc1ncc(-c2ccccc2)n1CC1CCCO1 (stereo not given)
- IC50 (H9c2): > 79 µM (inactive)
- AC50 (Cytochrome P450 2C9): 14.1 µM (inconclusive)
- AC50 [19]: > 20 µM (inactive)

Structure (SMILES): COC1=C(N)C(=O)c2nc(C)ccc2C1=O
- IC50 [20]: 4.94 µM (active)
- AC50 [19]: 0.61 µM (active)
- IC50 [21]: 59.6 µM (inactive)
- CC50 [18]: 20.8 µM (active)

Structure (SMILES): CCc1nonc1NC(=O)c1oc2cc(Br)ccc2c1C
- IC50 (cells [22]): > 138 µM (inactive)
- IC50 (Major prion protein): 3.55 µM (active)
